Measurements taken from US10670605B2, “Cysteine reactive probes and uses thereof” (The Scripps Research Institute, priority 2015, dated 2020).
One block for each compound: values may come before it.

Legend:
Test in all cases: Competitive isoTOP-ABPP, cell lysates;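 on isoTOP-ABPP reactivity profile ratio, P63244 C182: Heavy/light ratio DMSO over fragment-treated so higher means more cysteine engagement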;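 on isoTOP-ABPP reactivity profile ratio, Q99873 C109: Heavy/light ratio DMSO over fragment-treated so higher means more cysteine engagement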
Format in all cases: binding
DCUN1D1 C115 (Q96GG9) = DCUN1D1 C115 (Q96GG9) (Homo sapiens, UniProt Q96GG9); details: for isoTOP-ABPP reactivity profile ratio, Q96GG9_C115: 500 μm
GNB2L1 C182 (P63244) = GNB2L1 C182 (P63244) (Homo sapiens, UniProt P63244); details: for isoTOP-ABPP reactivity profile ratio, P63244_C182: 500 μm; for isoTOP-ABPP ratio, P63244_C182: 500 μM, invitro;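 on isoTOP-ABPP reactivity profile ratio, P63244 C182: Heavy/light ratio DMSO over fragment-treated so higher means more cysteine engagement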
MGMT C150 (P16455) = target: T1, MGMT C150 (P16455) (Homo sapiens, UniProt P16455); details: for isoTOP-ABPP reactivity profile ratio, P16455_C150: 500 μm, in-vitro_ramos
T1 sequence (P16455 1-207): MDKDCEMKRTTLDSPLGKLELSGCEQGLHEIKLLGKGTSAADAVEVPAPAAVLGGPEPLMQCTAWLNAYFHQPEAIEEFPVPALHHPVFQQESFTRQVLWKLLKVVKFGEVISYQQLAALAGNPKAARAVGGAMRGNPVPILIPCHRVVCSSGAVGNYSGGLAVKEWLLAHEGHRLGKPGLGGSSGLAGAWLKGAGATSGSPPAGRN

PCK2 C306 (Q16822) = target: T2, PCK2 C306 (Q16822) (Homo sapiens, UniProt Q16822); details: for isoTOP-ABPP reactivity profile ratio, Q16822_C306: 500 μm; for isoTOP-ABPP ratio, Q16822_C306: 500 μM, invitro
T2 sequence (Q16822 33-640): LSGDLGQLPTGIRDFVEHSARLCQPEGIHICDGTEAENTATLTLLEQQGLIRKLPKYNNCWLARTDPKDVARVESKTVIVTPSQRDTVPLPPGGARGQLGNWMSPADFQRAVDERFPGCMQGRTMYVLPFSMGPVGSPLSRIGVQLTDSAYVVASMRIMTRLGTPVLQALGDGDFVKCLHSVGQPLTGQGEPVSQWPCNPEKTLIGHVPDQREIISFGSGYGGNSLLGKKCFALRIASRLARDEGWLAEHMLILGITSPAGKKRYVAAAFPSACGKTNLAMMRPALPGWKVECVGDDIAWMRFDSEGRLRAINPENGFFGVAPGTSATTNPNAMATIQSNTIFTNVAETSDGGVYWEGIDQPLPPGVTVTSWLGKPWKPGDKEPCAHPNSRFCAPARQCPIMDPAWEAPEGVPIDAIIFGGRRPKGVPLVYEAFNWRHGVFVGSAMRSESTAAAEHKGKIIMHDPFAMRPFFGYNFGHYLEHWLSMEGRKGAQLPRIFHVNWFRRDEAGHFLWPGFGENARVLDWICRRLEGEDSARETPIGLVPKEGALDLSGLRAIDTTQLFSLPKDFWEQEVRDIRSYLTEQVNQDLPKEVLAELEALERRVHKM

PRMT1 C109 (Q99873) = PRMT1 C109 (Q99873) (Homo sapiens, UniProt Q99873); details: for isoTOP-ABPP reactivity profile ratio, Q99873_C109: 500 μm; for isoTOP-ABPP ratio, Q99873_C109: 500 μM, invitro;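 on isoTOP-ABPP reactivity profile ratio, Q99873 C109: Heavy/light ratio DMSO over fragment-treated so higher means more cysteine engagement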
SAMHD1 C522 (Q9Y3Z3) = SAMHD1 C522 (Q9Y3Z3) (Homo sapiens, UniProt Q9Y3Z3); details: for isoTOP-ABPP reactivity profile ratio, Q9Y3Z3_C522: 500 μm
STAT3 C259 (P40763) = STAT3 C259 (P40763) (Homo sapiens, UniProt P40763); details: for isoTOP-ABPP reactivity profile ratio, P40763_C259: 500 μm; for isoTOP-ABPP ratio, P40763_C259: 500 μM, invitro
UBE2L3 C86 (P68036) = UBE2L3 C86 (P68036) (Homo sapiens, UniProt P68036); details: for isoTOP-ABPP reactivity profile ratio, P68036_C86: 500 μm
UCHL3 C95 (P15374) = target: T3, UCHL3 C95 (P15374) (Homo sapiens, UniProt P15374); details: for isoTOP-ABPP reactivity profile ratio, P15374_C95: 500 μm; for isoTOP-ABPP ratio, P15374_C95: 500 μM, invitro
T3 sequence (P15374 1-230): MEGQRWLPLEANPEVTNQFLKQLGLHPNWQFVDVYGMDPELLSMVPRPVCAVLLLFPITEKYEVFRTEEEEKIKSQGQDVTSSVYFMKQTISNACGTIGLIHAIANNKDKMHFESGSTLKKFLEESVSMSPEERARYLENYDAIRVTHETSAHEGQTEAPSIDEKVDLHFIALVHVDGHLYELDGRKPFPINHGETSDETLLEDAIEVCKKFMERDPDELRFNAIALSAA

ZNF217 C286 (O75362) = ZNF217 C286 (O75362) (Homo sapiens, UniProt O75362); details: for isoTOP-ABPP reactivity profile ratio, O75362_C286: 500 μm, in-vitro_ramos_231; for isoTOP-ABPP ratio O75362_C286: 500 μM, invitro

isoTOP-ABPP reactivity profile ratio, Q96GG9_C115 (DCUN1D1 C115 (Q96GG9); in-vitro_ramos): 1.0
isoTOP-ABPP reactivity profile ratio, P63244_C182 (GNB2L1 C182 (P63244); in-vitro_ramos_231): 1.0
isoTOP-ABPP reactivity profile ratio, P16455_C150 (MGMT C150 (P16455)): 2.2
isoTOP-ABPP reactivity profile ratio, Q16822_C306 (PCK2 C306 (Q16822); in-vitro_ramos): 1.6
isoTOP-ABPP reactivity profile ratio, Q16822_C306 (PCK2 C306 (Q16822); in-vitro_ramos_231): 1.3
isoTOP-ABPP reactivity profile ratio, Q99873_C109 (PRMT1 C109 (Q99873); in-vitro_ramos): 1.3
isoTOP-ABPP reactivity profile ratio, Q99873_C109 (PRMT1 C109 (Q99873); in-vitro_ramos_231): 0.9
isoTOP-ABPP reactivity profile ratio, Q9Y3Z3_C522 (SAMHD1 C522 (Q9Y3Z3); in-vitro_ramos_231): 1.2
isoTOP-ABPP reactivity profile ratio, P40763_C259 (STAT3 C259 (P40763); in-vitro_ramos_231): 2.2
isoTOP-ABPP reactivity profile ratio, P68036_C86 (UBE2L3 C86 (P68036); in-vitro_ramos): 1.3
isoTOP-ABPP reactivity profile ratio, P68036_C86 (UBE2L3 C86 (P68036); in-vitro_ramos_231): 0.8
isoTOP-ABPP reactivity profile ratio, P15374_C95 (UCHL3 C95 (P15374); in-vitro_ramos_231): 1.2
isoTOP-ABPP reactivity profile ratio, O75362_C286 (ZNF217 C286 (O75362)): 1.0
Compound: O=C(CCl)Nc1ccc(-c2ccccc2)cc1 [compound 52]

isoTOP-ABPP ratio, Q96GG9_C115 (DCUN1D1 C115 (Q96GG9); 500 μM, invitro, ramos): 0.9
isoTOP-ABPP ratio, P63244_C182 (GNB2L1 C182 (P63244); 231): 1.0
isoTOP-ABPP ratio, P63244_C182 (GNB2L1 C182 (P63244); ramos): 1.1
isoTOP-ABPP ratio, P16455_C150 (MGMT C150 (P16455); 500 μM, invitro, ramos): 20.0
isoTOP-ABPP ratio, Q16822_C306 (PCK2 C306 (Q16822); 231): 3.2
isoTOP-ABPP ratio, Q16822_C306 (PCK2 C306 (Q16822); ramos): 1.2
isoTOP-ABPP ratio, Q99873_C109 (PRMT1 C109 (Q99873); 231): 20.0
isoTOP-ABPP ratio, Q99873_C109 (PRMT1 C109 (Q99873); ramos): 20.0
blockade of IA-alkyne labeling of C109 of PRMT1 (PRMT1 C109 (Q99873); competitive isoTOP-ABPP): blocking IA-alkyne labeling
isoTOP-ABPP ratio, Q9Y3Z3_C522 (SAMHD1 C522 (Q9Y3Z3); 500 μM, invitro, 231): 2.1
isoTOP-ABPP ratio, P40763_C259 (STAT3 C259 (P40763); 231): 20.0
isoTOP-ABPP ratio, P40763_C259 (STAT3 C259 (P40763); ramos): 20.0
isoTOP-ABPP ratio, P68036_C86 (UBE2L3 C86 (P68036); 500 μM, invitro, ramos): 1.0
isoTOP-ABPP ratio, P15374_C95 (UCHL3 C95 (P15374); 231): 0.8
isoTOP-ABPP ratio, P15374_C95 (UCHL3 C95 (P15374); ramos): 0.8
isoTOP-ABPP ratio O75362_C286 (ZNF217 C286 (O75362); 231): 1.2
isoTOP-ABPP ratio O75362_C286 (ZNF217 C286 (O75362); ramos): 1.2
Compound: Cn1cc(S(=O)(=O)N2CCOCC2)cc1C(=O)NC(=O)CCl [compound 11]

isoTOP-ABPP reactivity profile ratio, Q96GG9_C115 (DCUN1D1 C115 (Q96GG9); in-vitro_ramos): 0.9
isoTOP-ABPP reactivity profile ratio, Q96GG9_C115 (DCUN1D1 C115 (Q96GG9); in-vitro_ramos_231): 1.0
isoTOP-ABPP reactivity profile ratio, P63244_C182 (GNB2L1 C182 (P63244); in-vitro_ramos): 0.8
isoTOP-ABPP reactivity profile ratio, P63244_C182 (GNB2L1 C182 (P63244); in-vitro_ramos_231): 0.9
isoTOP-ABPP reactivity profile ratio, P16455_C150 (MGMT C150 (P16455)): 1.1
isoTOP-ABPP reactivity profile ratio, Q16822_C306 (PCK2 C306 (Q16822); in-vitro_ramos_231): 1.3
isoTOP-ABPP reactivity profile ratio, Q99873_C109 (PRMT1 C109 (Q99873); in-vitro_ramos): 1.1
isoTOP-ABPP reactivity profile ratio, Q99873_C109 (PRMT1 C109 (Q99873); in-vitro_ramos_231): 0.9
isoTOP-ABPP reactivity profile ratio, Q9Y3Z3_C522 (SAMHD1 C522 (Q9Y3Z3); in-vitro_ramos): 0.7
isoTOP-ABPP reactivity profile ratio, P40763_C259 (STAT3 C259 (P40763); in-vitro_ramos): 1.9
isoTOP-ABPP reactivity profile ratio, P68036_C86 (UBE2L3 C86 (P68036); in-vitro_ramos): 1.0
isoTOP-ABPP reactivity profile ratio, P68036_C86 (UBE2L3 C86 (P68036); in-vitro_ramos_231): 1.0
isoTOP-ABPP reactivity profile ratio, P15374_C95 (UCHL3 C95 (P15374); in-vitro_ramos): 0.7
isoTOP-ABPP reactivity profile ratio, O75362_C286 (ZNF217 C286 (O75362)): 1.1
Compound: C=CC(=O)N1CCC(Cc2ccccc2)CC1 [compound 53]

Compound: O=C(CCl)N1CCC(C(O)(c2ccccc2)c2ccccc2)CC1 [compound 20]
isoTOP-ABPP ratio (reactivity profile), Q96GG9_C115 (DCUN1D1 C115 (Q96GG9); 500 μm in-vitro ramos): 1.2
isoTOP-ABPP ratio (reactivity profile), Q96GG9_C115 (DCUN1D1 C115 (Q96GG9); 500 μm in-vitro ramos_231): 1.2
isoTOP-ABPP ratio (reactivity profile), P63244_C182 (GNB2L1 C182 (P63244); 500 μm in-vitro ramos): 1.1
isoTOP-ABPP ratio (reactivity profile), P63244_C182 (GNB2L1 C182 (P63244); 500 μm in-vitro ramos_231): 1.4
isoTOP-ABPP ratio (reactivity profile), P16455_C150 (MGMT C150 (P16455); 500 μm in-vitro ramos): 18.3
isoTOP-ABPP ratio (reactivity profile), Q16822_C306 (PCK2 C306 (Q16822); 500 μm in-vitro ramos): 1.6
isoTOP-ABPP ratio (reactivity profile), Q16822_C306 (PCK2 C306 (Q16822); 500 μm in-vitro ramos_231): 2.5
isoTOP-ABPP ratio (reactivity profile), Q99873_C109 (PRMT1 C109 (Q99873); 500 μm in-vitro ramos): 2.2
isoTOP-ABPP ratio (reactivity profile), Q99873_C109 (PRMT1 C109 (Q99873); 500 μm in-vitro ramos_231): 1.9
isoTOP-ABPP ratio (reactivity profile), Q9Y3Z3_C522 (SAMHD1 C522 (Q9Y3Z3); 500 μm in-vitro ramos): 1.3
isoTOP-ABPP ratio (reactivity profile), Q9Y3Z3_C522 (SAMHD1 C522 (Q9Y3Z3); 500 μm in-vitro ramos_231): 2.1
isoTOP-ABPP ratio (reactivity profile), P40763_C259 (STAT3 C259 (P40763); 500 μm in-vitro ramos): 3.0
isoTOP-ABPP ratio (reactivity profile), P68036_C86 (UBE2L3 C86 (P68036); 500 μm in-vitro ramos): 1.2
isoTOP-ABPP ratio (reactivity profile), P68036_C86 (UBE2L3 C86 (P68036); 500 μm in-vitro ramos_231): 1.1
isoTOP-ABPP ratio (reactivity profile), P15374_C95 (UCHL3 C95 (P15374); 500 μm in-vitro ramos): 0.9
isoTOP-ABPP ratio (reactivity profile), P15374_C95 (UCHL3 C95 (P15374); 500 μm in-vitro ramos_231): 1.0
isoTOP-ABPP ratio (reactivity profile), O75362_C286 (ZNF217 C286 (O75362); 500 μm in-vitro ramos_231): 1.3
